According to PMC6154314, “Evaluation of the Mycobactericidal Effect of Thio-functionalized Carbohydrate Derivatives” (Molecules : A Journal of Synthetic Chemistry and Natural …, 2017):
In brackets after ≈: the same amount, converted by molar mass. Entries after “also recorded” stand apart in the source; their conditions may differ. Where two headings read alike, the source gives them in different places.

Columns and labels:
[1] = tested on: Mycobacterium tuberculosis H37Rv strain (Mtb); assay: Susceptibility of M. tuberculosis in broth culture (OD600 and CFU analysis); format: cell-based; settings: for MIC50: Mycobacterium tuberculosis; for MIC50 / MIC50 anti-Mtb (OD): M. tuberculosis H37Rv, broth culture, 96 h; for Bactericidal activity against M. tuberculosis (in words): tested at 1–0.25 mM, OD600
Escherichia coli = assay: Broth microdilution susceptibility test (CLSI), E. coli; format: cell-based; settings: for MIC50: Escherichia coli, read-out: MIC50 anti-E. coli
Staphylococcus aureus = assay: Broth microdilution susceptibility test (CLSI), S. aureus; format: cell-based; settings: for MIC50: Staphylococcus aureus, read-out: MIC50 anti-S. aureus
[2] = Lipophilicity, octanol/water partition coefficient (LogP); format: physicochemical
Description: The most important parameter of drug candidates is lipophilicity, which determines water solubility, absorption and often cytotoxicity. The lipophilicity of the synthesized compounds was measured as the partition (P) or distribution (D) coefficient. The octanol/water partition/distribution coefficient is a widely used parameter for measuring lipophilicity. The Log P value is the ratio of the concentrations of a neutral substance in two immiscible phases: water and octan-1-ol. Log D is the log partition at a particular pH, and it is usually reserved for partition coefficients measured under conditions in which the solute is partially or completely ionized in the aqueous phase. For all compounds used in this work, the LogP and cLogP values were determined (Table 4). Each compound was also analysed by TLC (thin layer chromatography) and ^1H-NMR to verify its purity. All synthesized and tested compounds were analytically pure. Complete characterization of the products was performed by NMR spectroscopy and HR-MS techniques to confirm their purity and molecular structures.

[3] = tested on: Mycobacterium tuberculosis in human monocyte-derived macrophages; assay: Bactericidal effect against intracellularly growing tubercle bacilli in human monocyte-derived macrophages (CFU); format: cell-based; settings: Mtb-infected human MDMs; for Inhibition of growth of intracellularly deposited tubercle bacilli (in words): 48 h, compounds at MIC50 concentrations
[4] = tested on: human monocyte-derived macrophages (MDMs); settings: MTT, 48 h, uninfected MDMs; 50, 30, 30, 25 µM for 6, 16A, 20, 23
bacterium = tested on: bacterium; parameters: method as in PMID 387415, PMID 16707680; settings: as low as; after siderophore-dependent uptake and intracellular activation; cited from earlier work
[5] = read by OD600, read-out: MIC50 anti-Mtb (OD)
[6] = microdilution, Mueller-Hinton broth, 18 h, OD600
[7] = read by CFU, read-out: MIC50 anti-Mtb (CFU)

Q: What does the source list for COCC(OC(C)=O)[C@H]1O[C@@H]2OC(C)(C)O[C@@H]2[C@H]1OC(C)=O (stereo partly drawn) [Compound 12, 1,2-O-isopropylidene-3,5-di-O-acetyl-6-methoxy-D-glucofuranose]?
A: MIC50 [1, 5]: > 1000 µM; MIC50 (Escherichia coli; [6]): > 5000 µM; MIC50 (Staphylococcus aureus; [6]): > 10000 µM; logP [2]: -0.2

Q: Which results are given for CC(=O)OC[C@H]1O[C@@H](S[C@@H]2CC(=O)[C@@H]3OC[C@H]2O3)[C@H](OC(C)=O)[C@@H](OC(C)=O)[C@@H]1OC(C)=O [Compound 6]?
A: MIC50 [1, 7]: 50 µM (≈ 24.5 µg/mL); MIC50 (Escherichia coli; [6]): 5000 µM (≈ 2450 µg/mL); MIC50 (Staphylococcus aureus; [6]): 2500 µM (≈ 1230 µg/mL); Inhibition of growth of intracellularly deposited tubercle bacilli (in words) [3]: able to inhibit the growth; also recorded: significantly inhibit the growth; logP [2]: -1.13; OD[570nm] ± SD [4]: 2.163 ± 0.054

Q: For CC(=O)N[C@H]1CO[C@H](CO)[C@@H](O)[C@@H]1O [Compound 10, 2-acetamido-2-dexy-1,5-anhydro-D-mannitol], which MIC50 [1, 5] is on record?
A: > 1000 µM

Q: And the MIC50 (Escherichia coli; [6])?
A: > 10000 µM

Q: What about the MIC50 (Staphylococcus aureus; [6]) of the same compound?
A: > 10000 µM

Q: And the logP [2]?
A: -2.75

Q: What does the source list for O=C1C[C@@H](SC2=NCCS2)[C@H]2CO[C@@H]1O2 [Compound 26, (1R,2R,5R)-2-((4,5-dihydrothiazol-2-yl)-thio)-6,8-dioxabicyclo[3.2.1]octan-4-one]?
A: MIC50 [1, 7]: 50 µM (≈ 12.3 µg/mL); Concentration inhibiting the growth of E. coli (Escherichia coli): below 1 mM; MIC50 (Escherichia coli; [6]): > 2500 µM; MIC50 (Staphylococcus aureus; [6]): > 2500 µM; Inhibition of growth of intracellularly deposited tubercle bacilli (in words) [3]: able to inhibit the growth; logP [2]: 1.13; melting point: 127 to 129 °C

Q: With O=C(O)c1ccccc1S[C@@H]1CC(=O)[C@@H]2OC[C@H]1O2 [Compound 8, 1,6-anhydro-3-deoxy-4-S-β-salicylyl-D-glycero-hexopyranos-2-ulose] as the compound, how does the MIC50 [1, 7] read?
A: 200 µM (≈ 56.1 µg/mL)

Q: What about the “Fold increase of the concentration (MIC50) needed to inhibit Mtb relative to compound 6” value [1] of the same compound?
A: 4 times

Q: What about the MIC50 (Escherichia coli; [6]) of the same compound?
A: > 10000 µM

Q: And the MIC50 (Staphylococcus aureus; [6])?
A: > 10000 µM

Q: What about the logP [2] of the same compound?
A: 1.28

Q: For NC(=S)NN=C1C=C[C@H]2CO[C@@H]1O2 [Compound 14, 1,6-anhydro-3,4-dideoxy-α-D-glycero-hex-3-enopyranos-2-thiosemicarbazone], which MIC50 [1, 5] is on record?
A: 350 µM (≈ 69.7 µg/mL)

Q: And the MIC50 (Escherichia coli; [6])?
A: > 5000 µM

Q: What about the MIC50 (Staphylococcus aureus; [6]) of the same compound?
A: > 5000 µM

Q: And the logP [2]?
A: -0.18

Q: For O=C1C[C@@H](S[C@@H]2O[C@H](CO)[C@@H](O)[C@H](O)[C@H]2O)[C@H]2CO[C@@H]1O2 [Compound 7, 1,6-anhydro-3-deoxy-4-S-β-D-glucopyranosyl-D-glycero-hexopyranos-2-ulose], which MIC50 [1, 7] is on record?
A: 500 µM (≈ 161 µg/mL)

Q: And the “Fold increase of the concentration (MIC50) needed to inhibit Mtb relative to compound 6” value [1]?
A: 10 times

Q: What about the MIC50 (Escherichia coli; [6]) of the same compound?
A: > 10000 µM

Q: What about the MIC50 (Staphylococcus aureus; [6]) of the same compound?
A: > 10000 µM

Q: What about the logP [2] of the same compound?
A: -2.05

Q: Which MIC50 [1, 5] does the source give for CC(=O)OC[C@H]1O[C@@H](O[C@H]2[C@H](OC(C)=O)[C@@H](OC(C)=O)[C@H](S[C@@H]3CC(=O)[C@@H]4OC[C@H]3O4)O[C@@H]2COC(C)=O)[C@H](OC(C)=O)[C@@H](OC(C)=O)[C@H]1OC(C)=O [Compound 16] here?
A: 500 µM (≈ 389 µg/mL)

Q: What about the “Fold increase of the concentration (MIC50) needed to inhibit Mtb relative to compound 6” value [1] of the same compound?
A: 10 times

Q: What about the MIC50 (Escherichia coli; [6]) of the same compound?
A: > 5000 µM

Q: And the MIC50 (Staphylococcus aureus; [6])?
A: > 5000 µM

Q: What about the logP [2] of the same compound?
A: -2.18

Q: With OC[C@@]12CO[C@H](O1)[C@H](O)[C@@H](O)[C@H]2O [Compound 3, 1,6-anhydro-5-C-hydroxymethyl-α-L-altro-pyranose] as the compound, how does the MIC50 [1, 5] read?
A: > 1000 µM

Q: What about the “Bactericidal activity against M. tuberculosis (in words)” value (shortened to “Bactericidal activity”) [1] of the same compound?
A: not observed

Q: What about the logP [2] of the same compound?
A: -2.38

Q: For CC1(C)O[C@H]2O[C@H](C3CO3)[C@H](O)[C@H]2O1 (stereo partly drawn) [Compound 11, 1,2-O-isopropylidene-5,6-anhydro-D-glucofuranose], which MIC50 [1, 5] is on record?
A: 750 µM (≈ 152 µg/mL)

Q: And the logP [2]?
A: -0.39

Q: With OC1C(O)C(O)C2(CO2)C(O)C1O (centres unmarked) [Compound 4, 2-C-methylene-myo-inositol oxide] as the compound, how does the MIC50 [1, 5] read?
A: > 1000 µM

Q: And the “Bactericidal activity” value [1]?
A: not active

Q: And the logP [2]?
A: -3.22

Q: What does the source list for CC(=O)OC[C@H]1O[C@@H](O[C@H]2[C@H](OC(C)=O)[C@@H](OC(C)=O)[C@H](S[C@@H]3CC(=NNC(N)=S)[C@@H]4OC[C@H]3O4)O[C@@H]2COC(C)=O)[C@H](OC(C)=O)[C@@H](OC(C)=O)[C@H]1OC(C)=O [Compound 16A]?
A: MIC50 [1, 7]: 30 µM (≈ 25.6 µg/mL); Concentration inhibiting the growth of E. coli (Escherichia coli): below 1 mM; MIC50 (Escherichia coli; microdilution, Mueller-Hinton broth, 18 h, OD600, printed in µM): > 150 µM; MIC50 (Staphylococcus aureus; [6]): > 1250 µM; Inhibition of growth of intracellularly deposited tubercle bacilli (in words) [3]: able to inhibit the growth; Decrease of the number of intracellularly growing mycobacteria ([3]; MOI 1:10, 48 h, compound at MIC (30 µM for 16A), CFU vs untreated control): ~61%

Q: For albomycin, which MIC (bacterium) is on record?
A: 0.008 µM

Q: With Nc1nnc(S[C@@H]2CC(=O)[C@@H]3OC[C@H]2O3)s1 [Compound 23, (1R,2R,5R)-2-((5-amino-1,3,4-thiadiazol-2-yl)-thio)-6,8-dioxabicyclo[3.2.1]octan-4-one] as the compound, how does the MIC50 [1, 7] read?
A: 25 µM (≈ 6.48 µg/mL)

Q: What about the “Concentration inhibiting the growth of E. coli” value (Escherichia coli) of the same compound?
A: below 1 mM

Q: And the MIC50 (Escherichia coli; [6])?
A: > 1250 µM

Q: What about the “Concentration inhibiting the growth of S. aureus” value (Staphylococcus aureus) of the same compound?
A: ≤ 1 mM

Q: And the MIC50 (Staphylococcus aureus; [6])?
A: > 625 µM

Q: What about the “Inhibition of growth of intracellularly deposited tubercle bacilli (in words)” value [3] of the same compound?
A: able to inhibit the growth; also recorded: significantly inhibit the growth

Q: What about the logP [2] of the same compound?
A: 1.37

Q: What about the melting point of the same compound?
A: 140 to 142 °C

Q: And the “OD[570nm] ± SD” value [4]?
A: 2.428 ± 0.031

Q: With “5-thio-D-glucose pentaacetate [Compound 1]” as the compound, how does the “MIC50 anti-Mtb (OD)” value ([1]; read by OD600) read?
A: MIC50 > 1 mM/OD

Q: What about the “Bactericidal activity” value [1] of the same compound?
A: not bactericidal

Q: What about the logP ([2]; octanol/water) of the same compound?
A: −0.51

Q: For CC(=O)OC[C@H]1O[C@@H](O[C@H]2[C@H](OC(C)=O)[C@@H](OC(C)=O)[C@H](SC34CC5CC(CC(C5)C3)C4)O[C@@H]2COC(C)=O)[C@H](OC(C)=O)[C@@H](OC(C)=O)[C@H]1OC(C)=O [Compound 19], which MIC50 [1, 5] is on record?
A: 500 µM (≈ 393 µg/mL)

Q: Which results are given for NC(=S)NN=C1CC[C@H]2CO[C@@H]1O2 [Compound 14A, 1,6-anhydro-3,4-dideoxy-α-D-glycero-hexopyranos-2-thiosemicarbazone]?
A: MIC50 [1, 5]: > 1000 µM; MIC50 (Escherichia coli; [6]): > 2500 µM; MIC50 (Staphylococcus aureus; [6]): > 1250 µM; logP [2]: -0.29

Q: With CC(=O)OC[C@H]1O[C@@H](S[C@@H]2CC(=O)[C@@H]3OC[C@H]2O3)[C@H](OC(C)=O)[C@@H](OC(C)=O)[C@H]1OC(C)=O [Compound 9] as the compound, how does the MIC50 [1, 5] read?
A: > 150 µM

Q: What about the “Fold increase of the concentration (MIC50) needed to inhibit Mtb relative to compound 6” value [1] of the same compound?
A: at least 3 times

Q: And the logP [2]?
A: -1.13

Q: Which results are given for O=[N+]([O-])CC1(O)O[C@H](CO)[C@@H](O)[C@H](O)[C@H]1O (stereo partly drawn) [Compound 13, 1-C-nitromethyl-D-gluco-pyranose]?
A: MIC50 [1, 5]: > 1000 µM; MIC50 (Escherichia coli; [6]): > 10000 µM; MIC50 (Staphylococcus aureus; [6]): > 10000 µM; logP [2]: -4.22

Q: Which “MIC50 anti-Mtb (OD)” value ([1]; read by OD600) does the source give for 6-thio-β-D-fructopyranose [Compound 2] here?
A: MIC50 > 1 mM/OD

Q: And the “Bactericidal activity” value [1]?
A: not bactericidal

Q: And the “MIC50 anti-E. coli” value (Escherichia coli; [6])?
A: MIC50 > 2 mM/E. coli MIC50 > 2 mM/S. aureus

Q: What about the “MIC50 anti-S. aureus” value (Staphylococcus aureus; [6]) of the same compound?
A: MIC50 > 2 mM/E. coli MIC50 > 2 mM/S. aureus

Q: What about the logP ([2]; octanol/water) of the same compound?
A: −1.36

Q: With CS(=O)(=O)NC[C@H]1OC[C@H](O)[C@@H](O)[C@@H]1O [Compound 5, 1,5-anhydro-6-deoxy-6-methanesulfamido-D-glucitol] as the compound, how does the MIC50 [1, 5] read?
A: > 1000 µM

Q: What about the “Bactericidal activity” value [1] of the same compound?
A: not active

Q: And the MIC50 (Escherichia coli; [6])?
A: > 2000 µM

Q: And the MIC50 (Staphylococcus aureus; [6])?
A: > 2000 µM

Q: What about the logP [2] of the same compound?
A: -3.6
